These results are taken from the NIST ThermoML archive (doi:10.1021/je100835n).

The conditions of this data set: Liquid, Gas chromatography.

Numbers after ± are expanded uncertainties.

By vapor or sublimation pressure is commonly meant the equilibrium pressure above the liquid or solid. On to `C[Si]1(C)O[Si](C)(C)O[Si](C)(C)O[Si](C)(C)O[Si](C)(C)O1` [decamethylcyclopentasiloxane], for which the “vapor or sublimation pressure” value by setting is: (308.15 K) 0.04458 ± 0.0095 kPa; (318.15 K) 0.09293 ± 0.02 kPa; (328.15 K) 0.1853 ± 0.039 kPa; (338.15 K) 0.3545 ± 0.075 kPa; (348.15 K) 0.6537 ± 0.14 kPa; (358.15 K) 1.165 ± 0.25 kPa. The “vapor or sublimation pressure” value (368.15 K) is 2.011 ± 0.43 kPa.
In the case of `C[Si](C)(C)O[Si](C)(C)O[Si](C)(C)O[Si](C)(C)O[Si](C)(C)O[Si](C)(C)O[Si](C)(C)O[Si](C)(C)O[Si](C)(C)O[Si](C)(C)C` [docosamethyldecasiloxane], the “vapor or sublimation pressure” value (368.15 K) is 0.0007152 ± 0.00015 kPa; the “vapor or sublimation pressure” value (378.15 K) was found to be 0.001861 ± 0.00039 kPa; the “vapor or sublimation pressure” value (388.15 K) is given as 0.00461 ± 0.00098 kPa; the “vapor or sublimation pressure” value (398.15 K) is on record as 0.01091 ± 0.0023 kPa; the “vapor or sublimation pressure” value (408.15 K) came to 0.02475 ± 0.0053 kPa; the “vapor or sublimation pressure” value (418.15 K) is given as 0.054 ± 0.011 kPa. Moreover, the “vapor or sublimation pressure” value turned out to be 0.1136 ± 0.024 kPa (428.15 K) and 0.231 ± 0.049 kPa (438.15 K).
Consider `C[Si]1(C)O[Si](C)(C)O[Si](C)(C)O[Si](C)(C)O[Si](C)(C)O[Si](C)(C)O1` [dodecamethylcyclohexasiloxane], for which the “vapor or sublimation pressure” value was determined as 0.04948 ± 0.01 kPa (338.15 K); 0.09584 ± 0.02 kPa (348.15 K); 0.1789 ± 0.038 kPa (358.15 K); 0.3228 ± 0.069 kPa (368.15 K); 0.5646 ± 0.12 kPa (378.15 K); 0.9595 ± 0.2 kPa (388.15 K). Further, the “vapor or sublimation pressure” value (398.15 K) is 1.588 ± 0.34 kPa, the “vapor or sublimation pressure” value (408.15 K) is listed as 2.563 ± 0.54 kPa and the “vapor or sublimation pressure” value (418.15 K) was 4.044 ± 0.86 kPa.
Consider `C[Si](C)(C)O[Si](C)(C)O[Si](C)(C)O[Si](C)(C)O[Si](C)(C)C` [dodecamethylpentasiloxane], for which the “vapor or sublimation pressure” value is given as 0.09498 ± 0.02 kPa (338.15 K); 0.1719 ± 0.036 kPa (348.15 K); 0.3011 ± 0.064 kPa (358.15 K); 0.5114 ± 0.11 kPa (368.15 K); 0.8448 ± 0.18 kPa (378.15 K); 1.36 ± 0.29 kPa (388.15 K). Also, the “vapor or sublimation pressure” value turned out to be 2.137 ± 0.45 kPa (398.15 K) and 3.284 ± 0.7 kPa (408.15 K).
For the compound `C[Si](C)(C)O[Si](C)(C)O[Si](C)(C)O[Si](C)(C)O[Si](C)(C)O[Si](C)(C)O[Si](C)(C)O[Si](C)(C)O[Si](C)(C)C` [eicosamethylnonasiloxane], the “vapor or sublimation pressure” value runs as follows: (348.15 K) 0.0004156 ± 8.8e-05 kPa; (358.15 K) 0.001098 ± 0.00023 kPa; (368.15 K) 0.002752 ± 0.00058 kPa; (378.15 K) 0.006569 ± 0.0014 kPa; (388.15 K) 0.015 ± 0.0032 kPa; (398.15 K) 0.03284 ± 0.007 kPa. Moreover, the “vapor or sublimation pressure” value was determined as 0.0692 ± 0.015 kPa (408.15 K), 0.1407 ± 0.03 kPa (418.15 K), 0.2769 ± 0.059 kPa (428.15 K) and 0.5281 ± 0.11 kPa (438.15 K).
`C[Si](C)(C)O[Si](C)(C)O[Si](C)(C)O[Si](C)(C)O[Si](C)(C)O[Si](C)(C)O[Si](C)(C)O[Si](C)(C)O[Si](C)(C)O[Si](C)(C)O[Si](C)(C)O[Si](C)(C)C` [hexacosamethyldodecasiloxane]: the “vapor or sublimation pressure” value runs as follows: (388.15 K) 0.0004593 ± 9.7e-05 kPa; (398.15 K) 0.001256 ± 0.00027 kPa; (408.15 K) 0.00327 ± 0.00069 kPa; (418.15 K) 0.008134 ± 0.0017 kPa; (428.15 K) 0.01939 ± 0.0041 kPa; (438.15 K) 0.04441 ± 0.0094 kPa.
